Test results published in US20230330059A1, “3-PHENYL-2H-CHROMENE DERIVATIVE AND PHARMACEUTICAL COMPOSITION FOR PREVENTING OR TREATING ALZHEIMER'S, CONTAINING SAME” (NEUROBIONET, INC., priority 2020, published 2023).

How the values were obtained:
HEK293 cells = test: MTT cytotoxicity in HEK293 cells; type: cell-based; conditions: HEK293 cells, 1, 5 and 10 µM, 24 hours; FIG. 16
Procedure: (§1) HEK293 cells and the HEK293 cells overexpressing the dementia gene PSEN1 were seeded at a density of 2x10^5 cells/well into 96-well plates containing a DMEM medium and stabilized overnight, following by treating the cells with various concentrations (1, 5, and 10 µM) of the sample (SPA1413) for 24 hours. After removal of the culture medium, a 0.5 mg/ml MTT solution was added in an amount of 100 µl to each well and incubated at 37° C. for at least one hour in an incubator. The MTT was removed and 200 µl of DMSO was added to each well to dissolve the formazan. Absorbance was read at 540 nm on an ELISA reader to determine whether or the sample was toxic to the cells.

[1] = test system: HEK293 cells overexpressing the dementia gene PSEN1; test: MTT cytotoxicity in HEK293 cells overexpressing PSEN1; type: cell-based; conditions: PSEN1 gene-overexpressing HEK293 cell line, 1, 5 and 10 µM, 24 hours, compared to the normal cells; FIG. 16
Procedure: as §1

5xFAD mice [2] = test: Novel object recognition test; type: in vivo, mouse; conditions: 10 mg/kg orally once a day for 1 month, between groups, FIG. 20
Procedure: (§2) The experiment was conducted with 5X-FAD transgenic mice having Alzheimer’s disease introduced therein. The 5X FAD mouse is an animal model of Alzheimer’s disease with all the human AD-linked mutations: Swedish (K670N/ […]), Florida (1716V) and London (V7171) in APP (695) and M146L in Presenilin 1
(§3) 5xFAD mice were purchased from Jackson Lab and bred in and in through mating with C57B16/SJL F1 females, based on the information provided by the supplier. Through genotyping, the mice were divided into groups of 7-9 members, including normal groups (WT) and genetically modified groups (5xFAD): 4.5-month-old 5xFAD mice (Tg) and age-matched controls (WT). To the WT or Tg groups, a vehicle or SPA1413 was orally administered at a dose of 10 mg/kg once a day for 1 month. To test whether SPA1413 has a therapeutic effect on Alzheimer’s disease, the mice in 5 groups (WT-vehicle; WT-SPA1413 5xFAD-vehicle; 5xFAD-SPA1413; and 5xFAD-donepezil) were evaluated for cognitive ability.
For a novel object recognition test, the Ethovision XT 9 system was used to examine whether an animal was interested in a new object. […] An object newly recognizable to the animals was put into the box, and the time and frequency of staying near the object were measured to determine how interested the animals were in it. […]

5xFAD mice [3] = test: Y-maze test; type: in vivo, mouse; conditions: 10 mg/kg orally once a day for 1 month, vs 5xFAD-saline group, FIG. 21
Procedure: as §2, §3
Memory impairment was evaluated using the Y-shaped maze test. For the Y-shaped maze test, a Y-shaped arm was installed in a water tank. […] After a random number was assigned to each arm, the arm number in which the animal entered was recorded. Memory was assessed by the animal’s ability to remember the route it had taken and to try to navigate the new route.

5xFAD mice [4] = test: Passive avoidance test; type: in vivo, mouse; conditions: 10 mg/kg orally once a day for 1 month, FIG. 22
Procedure: as §2, §3
Passive avoidance test: Memory impairment was evaluated using the passive avoidance test. […] After being trained to learn that an unpleasant stimulus was given thereto in the dark room, the mice were evaluated for memory for the corresponding content as step-through latency.

[5] = test system: amyloid plaques in cortex and hippocampus of 5xFAD mice; test: Immunohistochemical assay of amyloid plaques (6E10 antibody, Thioflavin S); type: in vivo, mouse; conditions: 10 mg/kg, FIGS. 24 and 25
Procedure: as §3
After the animal behavior experiments, the brain tissues of the experimental animals were recovered, sectioned, and then stained with Thioflavin S for immunostaining chemistry using the 6E10 antibody.
Immunohistochemical staining is a technique for detecting specific proteins within tissues by staining the same. […] The stained tissues were observed through a fluorescence microscope, and the images are depicted in FIG. 23.
The quantitative analysis results of the images of the tissues stained with the 6E10 antibody and Thioflavin S are presented in FIGS. 24 and 25. Five experimental animals were selected from each group and analyzed. […]

[6] = test system: MHC II-positive microglia in cortex and hippocampus of 5xFAD mice; test: MHC II-positive activated microglia in brain tissue; type: in vivo, mouse; conditions: 10 mg/kg, FIGS. 26 and 27
[7] = test system: oligomeric Aβ proteins in cortex and hippocampus of 5xFAD mice; test: Western blotting of oligomeric Aβ proteins in brain tissue; type: in vivo, mouse; conditions: 10 mg/kg, FIG. 28
Procedure: as §3
After the animal behavior experiments, the brain tissues of the experimental animals were recovered, the brain tissues in the cortex and hippocampus regions of one hemisphere were separated, frozen, and stored until use. The tissues were thawed on the test day and treated with a lysis solvent, followed by protein isolation and quantitation. […]
The images of the western blots analyzed for oligomeric Aβ proteins (60-70 kDa) in the cortex and hippocampus of 5xFAD-vehicle and 5xFAD-SPA1413 group animals are presented in FIG. 28, and the band intensity was analyzed and quantified using the image j program.

## Oc1ccc(C2=Cc3ccc(O)cc3OC2)cc1 [SPA1413, 3-(4-Hydroxyphenyl)-2H-chromen-7-ol]
HEK293 cells
  cell viability (MTT): the same as or almost similar to the normal control group
[1]
  cell viability (MTT): increase in cell viability
5xFAD mice [2]
  total distance: no significant difference
  velocity: no significant difference
5xFAD mice [3]
  total arm entries: no significant difference
5xFAD mice [4]
  step-through latency: significantly recovered
[5]
  amyloid plaques in the cortex and hippocampus: significantly reduced
[6]
  number of activated microglia showing a positive MHC II reaction: significantly decrease
[7]
  level of oligomeric Aβ proteins (60-70 kDa) in the cortex and hippocampus: significantly reduce
